Among the data in patent US20260049071A1, “PROTEIN TYROSINE KINASE INHIBITOR AND MEDICAL USE THEREOF” (BEYANG THERAPEUTICS CO., LTD., priority 2022, published 2026) are IC50, fraction unbound and solubility values, retold here.

In brackets after ≈: the same amount, converted by molar mass.

Data set [1] addresses VEGFR2 autophosphorylation (pVEGFR2) in HUVEC cells (Homo sapiens (Human), UniProt P35968). The data set can be described thus: Inhibition of VEGF-induced VEGFR2 autophosphorylation in HUVEC cells (ELISA). Format: cell-based. As to conditions: 50 ng/ml human VEGF, compound 1 h. The source says:
Vascular endothelial growth factor receptor 2 (VEGFR2) is a primary receptor for VEGF-induced endothelial cell signaling. After ligand binding, VEGFR2 is autophosphorylated and activated. The main function of signaling from VEGFR2 is to induce vascularization during development and after tissue injury, and to bypass blocked blood vessels. Pathologically, VEGF and VEGFR2 are involved in tumor angiogenesis and vascular leakage. They are considered to be main participants in many different cancers and ocular diseases that accompany pathological neovascularization. This assay measured the ability of the compounds to inhibit VEGF-induced VEGFR2 autophosphorylation (pVEGFR2) in HUVEC cells by using ELISA.
Culture cells in a cell culture flask to reach a fusion degree of 60%-80% before cell inoculation. Dilute the cell suspension to […] with a pre-warmed complete medium. Add 80 μL of the cell suspension to all wells of a 96-well cell plate (Corning-3599); and incubate the plate overnight at 37° C. in the presence of 5% CO2. Dissolve the compound powder to 10 mM with DMSO and store it in a nitrogen cabinet. Compound dilution plate: Add a reference compound Ponatinib or a compound to be tested to a 96 V-well plate (Axygen-WIpp 2280) at concentrations achieved as follows: performing 3-fold gradient dilution starting from 5 mM (5 μL of 10 mM compound solution plus 5 μL of DMSO) for a total of 8 concentration points. […] Transfer 20 μL of the diluted compound from the intermediate plate to a cell plate. Then, incubate the cell plate for 1 h at 37° C. in the presence of 5% CO2. After the compound was treated for 1 h, add 25 μL of 250 ng/ml human VEGF at a final concentration of 50 ng/ml to a 96-well plate; and incubate the plate for 5 min at 37° C. in the presence of 5% CO2, centrifuge the plate for 10 min at 3,000 rpm, remove the medium and wash the cells once with 300 μL of pre-chilled DPBS per well. Then, centrifuge the plate for 10 min at 4,000 rpm, remove DPBS, and add 110 μL of pre-chilled 1× cell lysis buffer per well to the 96-well plate. Shake the plate for 40 min at 4° C. Then, freeze the plate in a refrigerator at −80° C. On the next day, remove the plate from the refrigerator at −80° C., thaw the plate, centrifuge the plate for 10 min at 3500 rpm, and add 100 μL of the supernatant per well to an ELISA plate. Seal the plate and incubate it for 2 h at 37° C. Wash the wells 4 times with 1× wash buffer. Add 100 μL of recombinant detection antibody per well. Seal the plate, incubate the plate for 1 h at 37° C., and repeat the step of plate washing. Add 100 μL of secondary antibody per well. Seal the plate, incubate the plate for 30 min at 37° C., and repeat the step of plate washing. Add 100 μL of TMB (protected from light) per well. Seal the plate, incubate the plate for 30 min at 37° C., and add 100 μL of the stop solution per well. Gently shake for 30 sec, measure the absorbance with a SpectraMax® 340 PC 384 Absorbance Microplate Reader within 30 min, and read an optical density value at 450 nm. Conduct data analysis using XL Fit software:
Conduct curve fitting using the 4 Parameter Logistic Model or Sigmoidal Dose-Response Model:
X indicating the log value of compound concentration, Y indicating the inhibition ratio (% inhibition), Top indicating the readout of the negative control wells, and bottom indicating the readout of the positive control well.
In general terms: An ELISA detects its analyte on a solid surface through an enzyme-linked reagent.

In a further data set the target is EGFR (Homo sapiens (Human), UniProt P00533). The data set can be described thus: Kinase inhibition, Mobility Shift Assay (EGFR). Format: biochemical. In outline:
(§1)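 Mobility shift assay: each kinase preincubated 10 min at room temperature with compound, then reacted with FAM-labeled peptide, MgCl2 and ATP at 28° C. for varying times. Substrate-to-product conversion read on Caliper; % inhibition normalised to no-kinase and DMSO controls, and IC50 fitted.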

A further data set concerns melanin. The data set can be described thus: Binding capacity of compounds to melanin. As to conditions: Sepia officinalis (cuttlefish), melanin suspension (1 mg/mL); 1 mg/mL melanin suspension in PBS pH 7.4, 2 μM compound, 2 h at 37° C.; read-out: Fu % (percentage of free drug, not bound to melanin). Format: in vitro ADME. In outline: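 Compound at 2 μM final incubated with 1 mg/mL Sepia melanin suspension in PBS pH 7.4 for 2 h at 37 °C with shaking; blank control in PBS with 0.1% BSA. Supernatant concentrations measured by LC-MS/MS; bound fraction from melanin versus control samples, free fraction as 100 − Fb.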

Another data set deals with FLT4 (VEGFR3) (Homo sapiens (Human), UniProt P35916). The experiment in a line: Kinase inhibition, Mobility Shift Assay (VEGFR3). Format: biochemical. In outline:
as §1

The target of the next data set is KDR (VEGFR2) (Homo sapiens (Human), UniProt P35968). The data set can be described thus: Kinase inhibition, Mobility Shift Assay (VEGFR2). Format: biochemical. Summed up: as §1
The target of another data set is FLT1 (VEGFR1) (Homo sapiens (Human), UniProt P17948). The data set can be described thus: Kinase inhibition, Mobility Shift Assay (VEGFR1). Format: biochemical. In outline:
as §1

A short description of data set [2]: Thermodynamic solubility assay. As to conditions: aqueous buffer, pH 2, aqueous buffer, thermodynamic from solid.
Method: After sonication for 10 min, fix them on a shaker and shaking for 8 h at room temperature. After shaking, sonicate for 10 min and centrifuge for 15 min at 13,000 rpm. Pipette 0.1 mL of supernatant into a new tube, shake and rinse it with 5 mL, and discard the liquid. Transfer 0.5 mL of the supernatant again to a new tube, centrifuge it for 15 min at 13,000 rpm, then collect the supernatant (if necessary, dilute with water) and analyze it by LC-MS.
The sample concentrations at 3-5 points are subjected to fitting and reticle for quantification.

Sequence of FLT1 (VEGFR1) (P17948 27-1338): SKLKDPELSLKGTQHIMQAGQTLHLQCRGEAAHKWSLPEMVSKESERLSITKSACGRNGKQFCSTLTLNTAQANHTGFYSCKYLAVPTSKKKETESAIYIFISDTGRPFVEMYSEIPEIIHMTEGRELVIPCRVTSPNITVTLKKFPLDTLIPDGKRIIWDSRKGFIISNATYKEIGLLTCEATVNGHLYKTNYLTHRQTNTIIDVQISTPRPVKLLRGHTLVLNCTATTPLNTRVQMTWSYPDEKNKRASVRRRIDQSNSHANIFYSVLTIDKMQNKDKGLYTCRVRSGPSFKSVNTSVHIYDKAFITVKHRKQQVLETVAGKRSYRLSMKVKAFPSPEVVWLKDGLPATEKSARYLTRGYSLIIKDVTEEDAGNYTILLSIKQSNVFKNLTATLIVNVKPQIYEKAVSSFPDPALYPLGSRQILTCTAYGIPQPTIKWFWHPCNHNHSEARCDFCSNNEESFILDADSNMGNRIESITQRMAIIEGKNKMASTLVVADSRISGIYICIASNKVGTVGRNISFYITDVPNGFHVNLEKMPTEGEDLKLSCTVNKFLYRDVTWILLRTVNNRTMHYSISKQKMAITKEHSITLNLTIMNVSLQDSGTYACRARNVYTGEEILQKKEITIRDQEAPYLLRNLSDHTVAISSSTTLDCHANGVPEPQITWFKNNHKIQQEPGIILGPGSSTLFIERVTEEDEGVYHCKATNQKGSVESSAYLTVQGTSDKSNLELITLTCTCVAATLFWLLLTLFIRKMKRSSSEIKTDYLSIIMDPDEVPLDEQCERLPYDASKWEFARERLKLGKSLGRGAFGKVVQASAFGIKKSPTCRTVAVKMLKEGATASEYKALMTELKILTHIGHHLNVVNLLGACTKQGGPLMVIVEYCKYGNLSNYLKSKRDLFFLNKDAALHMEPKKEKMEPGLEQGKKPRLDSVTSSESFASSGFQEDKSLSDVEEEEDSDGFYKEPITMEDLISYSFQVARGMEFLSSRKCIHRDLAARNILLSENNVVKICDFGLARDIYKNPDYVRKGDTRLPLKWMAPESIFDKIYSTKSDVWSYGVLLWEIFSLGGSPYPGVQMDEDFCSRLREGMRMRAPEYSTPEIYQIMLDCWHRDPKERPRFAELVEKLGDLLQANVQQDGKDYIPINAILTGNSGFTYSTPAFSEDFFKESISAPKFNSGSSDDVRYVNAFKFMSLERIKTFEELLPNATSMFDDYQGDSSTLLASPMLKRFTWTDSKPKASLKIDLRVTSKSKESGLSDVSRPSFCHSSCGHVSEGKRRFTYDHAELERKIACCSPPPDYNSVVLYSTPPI
Sequence of VEGFR2 autophosphorylation (pVEGFR2) in HUVEC cells (P35968 20-1356): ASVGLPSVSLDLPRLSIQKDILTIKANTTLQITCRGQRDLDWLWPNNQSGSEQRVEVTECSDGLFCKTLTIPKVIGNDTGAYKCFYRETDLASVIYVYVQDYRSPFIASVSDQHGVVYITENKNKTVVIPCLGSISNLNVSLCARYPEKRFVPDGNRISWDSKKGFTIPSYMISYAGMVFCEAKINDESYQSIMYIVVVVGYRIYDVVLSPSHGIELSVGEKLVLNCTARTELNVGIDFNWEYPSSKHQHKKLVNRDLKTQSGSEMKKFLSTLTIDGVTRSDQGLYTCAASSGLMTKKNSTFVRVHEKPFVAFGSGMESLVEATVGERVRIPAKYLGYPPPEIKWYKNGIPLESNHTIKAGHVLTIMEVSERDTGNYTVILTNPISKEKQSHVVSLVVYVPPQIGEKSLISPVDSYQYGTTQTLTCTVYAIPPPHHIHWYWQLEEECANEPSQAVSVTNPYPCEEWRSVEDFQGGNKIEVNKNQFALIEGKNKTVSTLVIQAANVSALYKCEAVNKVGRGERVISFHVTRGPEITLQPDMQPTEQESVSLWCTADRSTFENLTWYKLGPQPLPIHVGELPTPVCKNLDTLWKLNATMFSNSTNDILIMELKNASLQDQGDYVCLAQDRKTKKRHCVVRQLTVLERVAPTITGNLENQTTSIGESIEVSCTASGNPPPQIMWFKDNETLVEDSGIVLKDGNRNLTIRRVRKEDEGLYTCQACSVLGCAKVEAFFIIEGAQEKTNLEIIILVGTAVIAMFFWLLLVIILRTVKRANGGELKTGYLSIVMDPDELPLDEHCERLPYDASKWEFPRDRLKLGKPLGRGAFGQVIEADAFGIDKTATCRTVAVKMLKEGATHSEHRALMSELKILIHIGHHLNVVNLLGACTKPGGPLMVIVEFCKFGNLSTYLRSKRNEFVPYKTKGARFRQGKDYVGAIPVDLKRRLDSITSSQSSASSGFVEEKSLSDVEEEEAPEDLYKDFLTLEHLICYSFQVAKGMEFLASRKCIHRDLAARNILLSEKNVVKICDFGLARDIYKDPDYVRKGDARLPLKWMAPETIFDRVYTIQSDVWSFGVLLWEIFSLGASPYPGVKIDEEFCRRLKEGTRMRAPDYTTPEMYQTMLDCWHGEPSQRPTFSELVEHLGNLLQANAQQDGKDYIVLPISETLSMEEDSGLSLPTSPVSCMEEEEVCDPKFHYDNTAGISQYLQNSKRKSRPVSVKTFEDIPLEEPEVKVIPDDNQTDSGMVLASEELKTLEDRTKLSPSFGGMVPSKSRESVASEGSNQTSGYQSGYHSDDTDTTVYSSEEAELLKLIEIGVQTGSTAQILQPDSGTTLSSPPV
Sequence of KDR (VEGFR2) (P35968 790-1356): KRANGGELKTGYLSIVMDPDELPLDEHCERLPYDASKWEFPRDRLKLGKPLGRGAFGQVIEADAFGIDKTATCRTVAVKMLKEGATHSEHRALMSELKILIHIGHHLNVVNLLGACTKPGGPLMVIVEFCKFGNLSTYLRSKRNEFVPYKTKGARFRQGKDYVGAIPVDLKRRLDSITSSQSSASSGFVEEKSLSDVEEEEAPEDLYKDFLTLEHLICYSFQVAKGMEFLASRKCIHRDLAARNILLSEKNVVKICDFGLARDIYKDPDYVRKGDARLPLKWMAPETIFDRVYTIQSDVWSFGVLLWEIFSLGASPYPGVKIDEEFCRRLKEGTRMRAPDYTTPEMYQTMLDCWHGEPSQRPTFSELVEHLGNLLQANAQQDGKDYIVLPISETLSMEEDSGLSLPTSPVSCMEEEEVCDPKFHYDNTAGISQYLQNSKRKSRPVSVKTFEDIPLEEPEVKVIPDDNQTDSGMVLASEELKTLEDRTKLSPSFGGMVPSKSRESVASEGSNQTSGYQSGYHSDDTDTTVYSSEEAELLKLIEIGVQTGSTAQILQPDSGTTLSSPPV
Sequence of FLT4 (VEGFR3) (P35916 25-1363): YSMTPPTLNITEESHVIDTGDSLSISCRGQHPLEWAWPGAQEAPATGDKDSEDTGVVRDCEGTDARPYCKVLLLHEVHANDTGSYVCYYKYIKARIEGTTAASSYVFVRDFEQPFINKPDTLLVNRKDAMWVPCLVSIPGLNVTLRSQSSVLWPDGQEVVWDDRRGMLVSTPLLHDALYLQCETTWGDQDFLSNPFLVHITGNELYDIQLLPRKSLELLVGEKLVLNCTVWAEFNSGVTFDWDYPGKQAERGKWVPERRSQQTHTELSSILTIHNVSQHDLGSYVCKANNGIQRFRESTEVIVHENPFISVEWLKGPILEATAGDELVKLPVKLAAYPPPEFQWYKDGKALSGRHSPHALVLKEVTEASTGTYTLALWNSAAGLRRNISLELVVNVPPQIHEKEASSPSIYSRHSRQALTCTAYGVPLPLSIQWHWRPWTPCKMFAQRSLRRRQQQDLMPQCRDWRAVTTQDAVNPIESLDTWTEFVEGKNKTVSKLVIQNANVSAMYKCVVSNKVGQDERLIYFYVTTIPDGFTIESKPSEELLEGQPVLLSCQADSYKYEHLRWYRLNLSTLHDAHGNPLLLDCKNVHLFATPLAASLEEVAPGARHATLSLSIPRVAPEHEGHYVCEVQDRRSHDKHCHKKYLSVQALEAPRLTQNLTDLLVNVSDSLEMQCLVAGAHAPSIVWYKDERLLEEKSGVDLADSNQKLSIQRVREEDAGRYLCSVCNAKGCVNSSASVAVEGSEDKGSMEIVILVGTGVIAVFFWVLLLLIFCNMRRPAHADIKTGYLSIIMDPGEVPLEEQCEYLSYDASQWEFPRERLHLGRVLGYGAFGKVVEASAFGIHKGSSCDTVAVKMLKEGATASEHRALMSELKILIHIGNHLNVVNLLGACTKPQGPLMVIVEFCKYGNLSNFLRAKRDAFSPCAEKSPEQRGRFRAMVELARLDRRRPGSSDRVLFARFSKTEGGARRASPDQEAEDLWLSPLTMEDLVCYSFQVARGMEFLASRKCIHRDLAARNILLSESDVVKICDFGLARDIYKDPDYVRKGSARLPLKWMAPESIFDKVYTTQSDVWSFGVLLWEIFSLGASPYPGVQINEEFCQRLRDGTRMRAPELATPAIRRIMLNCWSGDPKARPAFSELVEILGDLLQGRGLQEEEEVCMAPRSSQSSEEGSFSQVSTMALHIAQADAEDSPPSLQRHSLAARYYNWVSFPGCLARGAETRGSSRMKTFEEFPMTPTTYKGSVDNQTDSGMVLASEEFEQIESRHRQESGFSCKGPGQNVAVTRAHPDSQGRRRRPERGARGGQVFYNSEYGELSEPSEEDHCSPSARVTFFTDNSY

One may read the IC50 as the concentration that inhibits the measured activity by half. Take `CNC(=O)c1ccccc1Sc1ccc2c(/C=C/c3ccc(OCCN4CCCC4)cn3)n[nH]c2c1` [Compound I-6, N-methyl-2-({3-[(E)-2-{5-[2-(pyrrolidin-1-yl)ethoxy]pyridin-2-yl}vinyl]-1H-indazol-6-yl}thio)benzamide]: the concentration for half-maximal inhibition (IC50) in data set [1] is 1 to 5 nM; on EGFR, 6000 to 60000 nM; on FLT4 (VEGFR3), 1 to 10 nM; on KDR (VEGFR2), 1 to 10 nM; at FLT1 (VEGFR1), at most 1 nM. Besides, the fraction unbound at 2 h, 2 μM in the data set with melanin fell in the range of 0.01 to 0.05.
Consider `CN(C)Cc1ccc(/C=C/c2n[nH]c3cc(Sc4ccccc4C(=O)NC4CC4)ccc23)nc1` [Compound I-40, N-cyclopropyl-2-({3-[(E)-2-{5-[(dimethylamino)methyl]pyridin-2-yl}vinyl]-1H-indazol-6-yl}thio)benzamide], for which the IC50 was at most 1 nM in data set [1]; 6000 to 60000 nM on EGFR; 1 to 10 nM at FLT4 (VEGFR3); at most 1 nM on KDR (VEGFR2); at most 1 nM at FLT1 (VEGFR1). In addition, in the data set with melanin, the fraction unbound at 2 h, 2 μM fell in the range of 0.01 to 0.05.
What is called solubility is the dissolved amount per volume that the medium holds. A lower solubility goes with little dissolved substance. As for `CNC(=O)c1ccccc1Sc1ccc2c(/C=C/c3ccc(OCC4CCCN4)cn3)n[nH]c2c1` (stereo not shown) [Compound I-14, N-methyl-2-({3-[(E)-2-{5-[(pyrrolidin-2-yl)methoxy]pyridin-2-yl}vinyl]-1H-indazol-6-yl}thio)benzamide], the half-inhibitory concentration (IC50) lay within 6000 to 60000 nM at EGFR, 1 to 10 nM at FLT4 (VEGFR3), 1 to 10 nM at KDR (VEGFR2) and 1 to 10 nM on FLT1 (VEGFR1). In data set [2], the solubility at 8 h was 46.8 µg/mL (≈ 96.4 µM). Besides, the fraction unbound at 2 h, 2 μM in the data set on melanin is 0.01 to 0.05.
With `CNC(=O)c1ccccc1Sc1ccc2c(/C=C/c3cc(OCCN4CCCC4)ccn3)n[nH]c2c1` [Compound I-20, N-methyl-2-({3-[(E)-2-{4-[2-(pyrrolidin-1-yl)ethoxy]pyridin-2-yl}vinyl]-1H-indazol-6-yl}thio)benzamide], the IC50 in data set [1] lay within 1 to 5 nM; on EGFR, 6000 to 60000 nM; at FLT4 (VEGFR3) it was 10 to 100 nM; at KDR (VEGFR2), 10 to 100 nM; on FLT1 (VEGFR1), 10 to 100 nM. Besides, the fraction unbound at 2 h, 2 μM in the data set with melanin is 0.01 to 0.05.
`CNC(=O)c1cc(F)ccc1Sc1ccc2c(/C=C/c3cnn(CCCN4CCCC4)c3)n[nH]c2c1` [Compound I-106]: the half-maximal inhibitory concentration (IC50) on EGFR lay in the range of 6000 to 60000 nM; at KDR (VEGFR2) it was 1 to 10 nM. Besides, in data set [2], the solubility at 8 h was 1580 µg/mL (≈ 3130 µM). Moreover, the fraction unbound at 2 h, 2 μM in the data set on melanin was over 0.05.
As for `CNC(=O)c1cc(F)ccc1Sc1ccc2c(/C=C/c3ccc(OCCN4CCCC4)cn3)n[nH]c2c1` [Compound I-34, 5-fluoro-N-methyl-2-({3-[(E)-2-{5-[2-(pyrrolidin-1-yl)ethoxy]pyridin-2-yl}vinyl]-1H-indazol-6-yl}thio)benzamide], the IC50 was at most 1 nM in data set [1]; 6000 to 60000 nM at EGFR; 1 to 10 nM at FLT4 (VEGFR3); 1 to 10 nM at KDR (VEGFR2); 1 to 10 nM on FLT1 (VEGFR1). Further, the fraction unbound at 2 h, 2 μM in the data set with melanin is over 0.05.
Consider `CNC(=O)c1ccccc1Sc1ccc2c(/C=C/c3cnn(CCN4CCCC4)c3)n[nH]c2c1` [Compound I-9, N-methyl-2-({3-[(E)-2-{1-[2-(pyrrolidin-1-yl)ethyl]-1H-pyrazole-4-yl}vinyl]-1H-indazol-6-yl}thio)benzamide], for which the 50% inhibitory concentration (IC50) in data set [1] is at most 1 nM; on EGFR, 6000 to 60000 nM; on FLT4 (VEGFR3), 1 to 10 nM; on KDR (VEGFR2) it was 1 to 10 nM; on FLT1 (VEGFR1), 1 to 10 nM. The fraction unbound at 2 h, 2 μM with melanin was in the range of 0.01 to 0.05.
As for `CCNC(=O)c1cc(F)ccc1Sc1ccc2c(/C=C/c3ccc(CN4CCCC4)cn3)n[nH]c2c1` [Compound I-97, N-ethyl-5-fluoro-2-({3-[(E)-2-{5-[(pyrrolidin-1-yl)methyl]pyridin-2-yl}vinyl]-1H-indazol-6-yl}thio)benzamide], the half-maximal inhibitory concentration (IC50) was at most 1 nM in data set [1]; 6000 to 60000 nM at EGFR; 1 to 10 nM on FLT4 (VEGFR3); 1 to 10 nM at KDR (VEGFR2); 1 to 10 nM on FLT1 (VEGFR1). Also, the fraction unbound at 2 h, 2 μM in the data set on melanin was 0.01 to 0.05.
Turning to `O=C(NC1CC1)c1ccccc1Sc1ccc2c(/C=C/c3ccc(CCCN4CCCC4)cn3)n[nH]c2c1` [Compound I-59, N-cyclopropyl-2-({3-[(E)-2-{5-[3-(pyrrolidin-1-yl)propyl]pyridin-2-yl}vinyl]-1H-indazol-6-yl}thio)benzamide], the IC50 in data set [1] was at most 1 nM; at EGFR, 6000 to 60000 nM; at KDR (VEGFR2), at most 1 nM. The fraction unbound at 2 h, 2 μM in the data set with melanin lay in the range of 0.01 to 0.05.
`CCNC(=O)c1cc(F)ccc1Sc1ccc2c(/C=C/c3cnn(CCCN4CCCC4)c3)n[nH]c2c1` [Compound I-104, N-ethyl-5-fluoro-2-({3-[(E)-2-{1-[3-(pyrrolidin-1-yl)propyl]-1H-pyrazol-4-yl}vinyl]-1H-indazol-6-yl}thio)benzamide]: the half-maximal inhibitory concentration (IC50) in data set [1] was at most 1 nM; on EGFR, over 60000 nM; at KDR (VEGFR2) it was at most 1 nM. Moreover, the fraction unbound at 2 h, 2 μM in the data set with melanin was over 0.05.
Take `CNC(=O)c1ccccc1Sc1ccc2c(/C=C/c3ccc(OCCN4CCOCC4)cn3)n[nH]c2c1` [Compound I-3, N-methyl-2-({3-[(E)-2-{5-[2-(morpholin-4-yl)ethoxy]pyridin-2-yl}vinyl]-1H-indazol-6-yl}thio)benzamide]: the IC50 in data set [1] was at most 1 nM; at EGFR it was 6000 to 60000 nM; on FLT4 (VEGFR3), at most 1 nM; on KDR (VEGFR2), at most 1 nM; on FLT1 (VEGFR1) it was at most 1 nM. For the same compound, the fraction unbound at 2 h, 2 μM in the data set with melanin was in the range of 0.01 to 0.05.
With `CCN(CC)Cc1ccc(/C=C/c2n[nH]c3cc(Sc4ccc(F)cc4C(=O)NC4CC4)ccc23)nc1` [Compound I-84, N-cyclopropyl-2-({3-[(E)-2-{5-[(diethylamino)methyl]pyridin-2-yl}vinyl]-1H-indazol-6-yl}thio)-5-fluorobenzamide], the figures for the concentration for half-maximal inhibition (IC50) (in data set [1]; on EGFR; on KDR (VEGFR2)) were at most 1 nM, 6000 to 60000 nM and 1 to 10 nM, respectively. Besides, in the data set on melanin, the fraction unbound at 2 h, 2 μM was over 0.05.
